Patent US20200087340A1, “LIF/LIFR ANTAGONIST IN ONCOLOGY AND NONMALIGNANT DISEASES” (Evestra, Inc., priority 2018, published 2020)
Each block holds one molecule with its values, some of them ahead of it.

Columns and labels:
[1] = system: human umbilical vein endothelial cells (HUVEC); experiment: Matrigel in vitro HUVECs tube formation assay (angiogenesis); assay type: cell-based; conditions: 1 μM concentration, all measured time points
Protocol: Matrigel in vitro HUVECs tube formation assay: The tube formation assay was performed using 12-well plate coated with 100 μL Matrigel basement membrane matrix (BD Bioscience) per well and polymerized at 37° C. for 30 min. Human umbilical vascular endothelial cells (HUVECs) suspended in M199 medium containing 2% FBS were plated on the Matrigel at a density of 2×10^5 cells/well. […] After 8 h, the Matrigel-induced morphological changes were photographed and the extent of capillary tube formation was evaluated by measuring the total tube length per field.

[2] = system: human endometrial stromal cells (HESC); experiment: Decidualization assay, phalloidin staining of actin cytoskeleton; assay type: cell-based
Protocol: Decidualization studies: The above compounds were investigated originally for the treatment of endometriosis. The compounds were tested in a decidualization assay using human endometrial stromal fibroblast (HESC) cells. In preparation for the possibility of embryonic attachment, the stromal cells in the endometrium undergo extensive waves of proliferation, remodeling, and terminal differentiation that transforms the endometrium into an endocrine gland, called decidua. This transformation is called decidualization and it is under the control by ovarian hormones.
The level of apoptosis increases from the proliferative phase through menstrual cycle and peaks at menses. […] However if the cells are subjected to conditions that induce decidualization, stromal cells will begin to differentiate instead of undergoing apoptosis.
Rationale of this assay is described above in mechanism of action studies section. Briefly, human stromal endometrial cells were plated in the presence and absence of progesterone and allow undergoing decidualization. The cells treated with test compounds of different concentrations and stained for actin cytocketal morphology using phalloidin staining and monitored under fluorescent microscope.

[3] = system: Patient derived tumor (melanoma); experiment: Immunohistochemistry analysis of treated patient derived tumor; assay type: cell-based, human; conditions: 10 nM and 1 uM for 5 days
Protocol: Patient derived tumor (melanoma) was treated with the compounds at 10 nM and 1 uM for 5 days in RPMI medium and harvested on day 6 using established protocol and immunohistochemistry was performed for different antibodies including p53, LIF, MDM2, pSTAT3, Ki67.

[4] = system: various cancer cells lines; experiment: Cytotoxicity assays in various cancer cell lines; assay type: cell-based
T47D cells = experiment: Soft agar colony formation assay; assay type: cell-based, human; conditions: 100 nM concentration
Protocol: Colonies of cancer cells formed in soft agar in the presence and absence of the testing compounds is a standard assay to interpret in-vitro tumorigenic potential in the basal layer. Agar was prepared by mixing 1% DNA grade agar melted and cooled to 40° C. with an equal volume of (2×) Dulbecco's Modified Eagle's Medium (DMEM) to obtain 0.5% agar that was dispersed in a 6-well plate and allowed to solidify. A total of 0.6% agar was prepared in RPMI medium and mixed together with T47D cells (0.5×10^6 cells/mL) and immediately plated on the basal layer in the presence or absence of testing compounds. The cultures were incubated at 37° C. in a CO2 incubator for 2 weeks, and colonies were stained with 0.005% crystal violet and observed under a light microscope.

MCF-7 cells = experiment: P53 / MDM2 levels in MCF-7 cells; assay type: cell-based, human
[5] = system: unmodified MCF-7 human breast cancer cells; experiment: LIF specificity assay, cytotoxicity; assay type: cell-based; conditions: MCF7
U87-MU (Glioma cells) = experiment: Short term (72 h) cytotoxicity assay; assay type: cell-based; conditions: Glioma cell
U251 (Glioma) = experiment: Short term (72 h) cytotoxicity assay; assay type: cell-based; conditions: Homo sapiens, U-251; U251, 72 h
A549 (Lung cancer) = experiment: Short term (72 h) cytotoxicity assay; assay type: cell-based; conditions: Homo sapiens, A549, 72 h
[6] = system: LIF-overexpressing MCF-7 (MCF-7 LIF) human breast cancer cells; experiment: LIF specificity assay, cytotoxicity; assay type: cell-based; conditions: for Fold Change: cytotoxicity MCF-7 vs. MCF-7 LIF (specificity towards LIF)
[7] = system: FC 1295 and imPSCc-2 organoids; experiment: Pancreatic cancer / stellate cell line derived organoid system; assay type: cell-based, Murine; conditions: as compared to control
Protocol: Most solid tumors have extensive stroma that not only facilitates the tumor progression but also impedes the delivery of the chemotherapeutic agents. Due to lack of any in-vitro system, presently it is difficult to evaluate any stroma-targeted therapies. Therefore, we developed an organoid system using labeled pancreatic cancer and stellate cell lines. Murine (FC 1295 and […]-2) cell lines cultured in different combinations were grown as an organoid system using matrigel. The organoids, starting day four were treated with either gemcitabine or EC359, a novel mifepristone derived steroidal cytotoxic agent that targets tumor stroma, or both in combination. qRT-PCR analysis of activated stroma signature genes was performed on the mRNA isolated from different treatment groups. H&E, immunohistochemistry, and western blot analysis were performed to further validate our findings. […] Our novel cell line derived organoid model can be utilized for fast, and inexpensive evaluation of stroma-targeted therapies.

Structure (SMILES): C#CC(F)(F)[C@]1(O)CCC2C3CCC4=CC(=O)CCC4=C3C(c3ccc(C(C)=O)cc3)C[C@@]21C (stereo partly drawn) [EC332, 17α-(1,1-difluoro-2-propyn-1-yl)-17β-hydroxy-11β-[4-p-(acetyl)phenyl]estra-4,9-dien-3-one]
tube formation [1]: complete abrogation of tube formation
actin cytoskeletal disruption (phalloidin staining) [2]: cytoskeletal disruption
apoptosis, p53, MDM2, LIF mediated STAT3 phosphorylation (immunohistochemistry) [3]: induce apoptosis and restore p53 by inhibiting MDM2 and LIF mediated STAT3 phosphorylation
cytotoxicity (IC50's) in cytotoxicity assays [4]: low nanomolar
colonies formed (T47D cells): complete inhibition or no colonies were formed
P53 levels / MDM2 (MCF-7 cells): restore P53 levels by inhibiting MDM2

melting point: 175 to 178 °C
Structure (SMILES): C#CC(F)(F)[C@]1(O)CCC2C3CCC4=CC(=O)CCC4=C3C(c3ccc(-n4ccnc4)cc3)C[C@@]21C (some centres unmarked) [EC351]

Structure (SMILES): C#CC(F)(F)[C@]1(O)CCC2C3CCC4=CC(=O)CCC4=C3C(c3ccc(N(C)C)cc3)C[C@@]21C (stereo partly drawn) [EC352, 17α-(1,1-difluoro-2-propyn-1-yl)-17β-hydroxy-11β-[4-p-(dimethylamino)phenyl]estra-4,9-dien-3-one]
IC50 [5]: > 10 µM
IC50 (U87-MU (Glioma cells)): 50 nM
IC50 (U251 (Glioma)): 40 nM
IC50 (A549 (Lung cancer)): 45 nM
IC50 ([6]; Homo sapiens, MCF7, LIF-overexpressing MCF-7): > 10 µM
Fold Change [6]: 0

Structure (SMILES): C#CC(F)(F)[C@]1(O)CCC2C3CCC4=CC(=O)CCC4=C3C(c3ccc(OC)cc3)C[C@@]21C (stereo partly drawn) [EC356, 17α-(1,1-difluoro-2-propyn-1-yl)-17β-hydroxy-11β-[4-p-(methoxy)phenyl]estra-4,9-dien-3-one]
Fold Change [6]: 2

melting point: 127 to 129 °C
Structure (SMILES): C#CC(F)(F)[C@]1(O)CCC2C3CCC4=CC(=O)CCC4=C3C(c3ccc(C(C)(C)C)cc3)C[C@@]21C (stereo partly drawn) [EC357, 17α-(1,1-difluoro-2-propyn-1-yl)-17β-hydroxy-11β-[4-p-(t-butyl)phenyl]estra-4,9-dien-3-one]

Structure (SMILES): C#CC(F)(F)[C@]1(O)CCC2C3CCC4=CC(=O)CCC4=C3C(c3ccc(C(=C)C)cc3)C[C@@]21C (stereo partly drawn) [EC358, 17α-(1,1-difluoro-2-propyn-1-yl)-17β-hydroxy-11β-[4-p-(1-methylethenyl)phenyl]estra-4,9-dien-3-one]
Fold Change [6]: 2

Structure (SMILES): C#CC(F)(F)[C@]1(O)CCC2C3CCC4=CC(=O)CCC4=C3C(c3ccc(C4CCCCC4)cc3)C[C@@]21C (stereo partly drawn) [EC360, 17α-(1,1-difluoro-2-propyn-1-yl)-17β-hydroxy-11β-[4-p-(cyclohexyl)phenyl]estra-4,9-dien-3-one]
Fold Change [6]: 2

Structure (SMILES): C#CC(F)(F)[C@]1(O)CCC2C3CCC4=CC(=O)CCC4=C3C(c3ccc(S(=O)(=O)C4CC4)cc3)C[C@@]21C (stereo partly drawn) [EC361, 17α-(1,1-difluoro-2-propyn-1-yl)-17β-hydroxy-11β-[4-p-(cyclopropylsulfonyl)phenyl]estra-4,9-dien-3-one]
Fold Change [6]: 20

Structure (SMILES): C#CC(F)(F)[C@]1(O)CCC2C3CCC4=CC(=O)CCC4=C3C(c3ccc(CCCCCCC)cc3)C[C@@]21C (stereo partly drawn) [EC362, 17α-(1,1-difluoro-2-propyn-1-yl)-17β-hydroxy-11β-[4-p-(n-heptyl)phenyl]estra-4,9-dien-3-one]
Fold Change [6]: 2

Structure (SMILES): Nc1ccn([C@@H]2O[C@H](CO)[C@@H](O)C2(F)F)c(=O)n1 [Gemcitabine, reference compound]
relative reduction in GFP fluorescence [7]: 98%
